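Results reflect a 48-hour exposure of cells in 96-well plates to compound at five concentrations. GI50 = concentration required for 50% inhibition of growth.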 Active and inactive are the calls of the source. Rule as the data show it: active = GI50 up to about 1.1 µM and inactive = higher.
Experiments:
Assay in all cases: inhibition of tumour cell growth, NCI panel, 48 h
[1] = test system: EKVX
[2] = test system: SN12C
[3] = test system: NCI-H522
[4] = test system: SF-295
[5] = test system: A498
[6] = test system: TK-10
[7] = test system: HCT-116
[8] = test system: UO-31
[9] = test system: RPMI-8226
[10] = test system: CCRF-CEM
[11] = test system: SF-539
[12] = test system: UACC-257
[13] = test system: U-251
[14] = test system: MCF7
[15] = test system: HCC 2998
[16] = test system: MDA-MB-231
[17] = test system: NCI-H460
[18] = test system: SNB-75
[19] = test system: Hs-578T

Compound | GI50 [1] | GI50 [2] | GI50 [3] | GI50 [4] | GI50 [5] | GI50 [6] | GI50 [7] | GI50 [8] | GI50 [9] | GI50 [10] | GI50 [11] | GI50 [12] | GI50 [13] | GI50 [14] | GI50 [15] | GI50 [16] | GI50 [17] | GI50 [18] | GI50 [19]
CCOC(=O)c1sc2nc(SC)nc(Nc3ccc4c(c3)OCCCO4)c2c1N | 10.6 µM (inactive) | > 100 µM (inactive) | 3.3 µM (inactive) | 8.95 µM (inactive) | 26.7 µM (inactive) | 40.6 µM (inactive) | 67.1 µM (inactive) | 85.1 µM (inactive) | 4.25 µM (inactive) | 4.66 µM (inactive) | 14.3 µM (inactive) | 7.82 µM (inactive) | 46.5 µM (inactive) | 7.71 µM (inactive) | 25.2 µM (inactive) | 33 µM (inactive) |  |  | 
CN(C(=O)c1cc2c(s1)sc1c(=O)n(C)c3ccccc3c12)c1ccccc1 | 16.7 µM (inactive) | 34.8 µM (inactive) | 4.41 µM (inactive) | 2.25 µM (inactive) |  | 24.7 µM (inactive) | 4.93 µM (inactive) | 6.7 µM (inactive) |  | 2.74 µM (inactive) | 5.45 µM (inactive) | 29.4 µM (inactive) | 10.9 µM (inactive) | 0.501 µM (active) | 4.66 µM (inactive) | 24.8 µM (inactive) | 2.43 µM (inactive) | 4.33 µM (inactive) | 
CC(=O)Nc1cccc(N2C(=O)/C(=C\c3cccc(Oc4ccccc4)c3)S(=O)(=O)C2c2ccccc2)c1 (stereo not given) | 73.6 µM (inactive) | > 100 µM (inactive) | 69 µM (inactive) | 46.5 µM (inactive) | > 100 µM (inactive) | > 100 µM (inactive) | 34.1 µM (inactive) | 33.1 µM (inactive) | 61.5 µM (inactive) | 57.8 µM (inactive) | 36 µM (inactive) | > 100 µM (inactive) | 65.6 µM (inactive) | 34 µM (inactive) | > 100 µM (inactive) | > 100 µM (inactive) | > 100 µM (inactive) | > 100 µM (inactive) | 
CC(=O)OCC1OC(O[C@@H]2C[C@H]3C(C)(C)[C@H](OC(C)=O)CC[C@]3(C)[C@H]3CC[C@]4(C)C(=CC[C@H]4[C@@H](C)C[C@@H](O)[C@H](O)C(C)(C)O)[C@@]32C)C(O)C(O)C1O (stereo not given in full) | 19.1 µM (inactive) | 17.5 µM (inactive) | 1.67 µM (inactive) | 18.7 µM (inactive) | 19.9 µM (inactive) | 17 µM (inactive) | 14.4 µM (inactive) | 17.4 µM (inactive) | 12.2 µM (inactive) | 17.6 µM (inactive) | 16.4 µM (inactive) | 19 µM (inactive) | 12.7 µM (inactive) | 17.3 µM (inactive) | 20.8 µM (inactive) | 16.9 µM (inactive) | 17.5 µM (inactive) | 22 µM (inactive) | 
C[C@@H]1[C@@H](c2ccccc2)O[B-](c2ccccc2)(c2ccccc2)N1C | 97.7 µM (inactive) | 61.5 µM (inactive) | 34.5 µM (inactive) | 62.4 µM (inactive) | 34.8 µM (inactive) | 32.8 µM (inactive) | 32.9 µM (inactive) | 20.9 µM (inactive) | 32 µM (inactive) | 12.9 µM (inactive) | 27.3 µM (inactive) | 50.6 µM (inactive) | > 100 µM (inactive) |  |  | 40.7 µM (inactive) | 45.2 µM (inactive) |  | 33.4 µM (inactive)
N#C/C(=C\c1cc(Br)c(O)c(Br)c1)c1cccnc1 | 19.1 µM (inactive) | 34.7 µM (inactive) | 30.6 µM (inactive) | 18.5 µM (inactive) |  | 27.4 µM (inactive) | > 100 µM (inactive) | 22.1 µM (inactive) | 21.6 µM (inactive) | 18.2 µM (inactive) | 26.2 µM (inactive) | 23.6 µM (inactive) | 16.7 µM (inactive) | 33 µM (inactive) | 36.1 µM (inactive) |  | 32.5 µM (inactive) | 75 µM (inactive) | 
